Bridge positions count the residues as written; N and C are the ends. Peptide text beside a SMILES is read from it.
Columns and labels:
E. coli ML35 [1] = test: Cell-suspension microbicidal assay (MMC); assay type: cell-based, Escherichia coli; conditions: for MMC, E. coli: lowest concentration that reduced cell viability by 99.9%, 10 mM PIPES, 5 mM glucose, pH 7.4, 2 h 37° C.; for fold higher potency against E. coli than the peptide acid analog: carboxamide versus C-terminal acid of the same acyclic θ-defensin
Experimental: (§1) To test microbicidal activities, the activities of each peptide against S. aureus 502a, E. coli ML35, and C. albicans 16820 were assessed essentially as described in Example I with modifications to allow for simultaneous analysis of all twenty peptides. Briefly, two-fold serial dilutions of each peptide (in 0.01% acetic acid 0.062-8.0 μg/ml final concentrations) were mixed with 10 mM PIPES, pH 7.4, containing 5 mM glucose in sterile polystyrene 96-well plates (Corning, N.Y.). Aliquots of log-phase bacteria or yeast were added to a 2×10^6 CFU/ml final density as determined by A620. After 2 h incubation at 37° C., 15 μl of the incubation mixture was removed and serially diluted ten-fold from 1:10 to 1:10^6 in trypticase soy broth (bacteria) or Sabaraud dextrose broth (C. albicans). The diluted cell suspensions were grown 24-48 h at 37° C. until cell pellets were visible. Microbicidal activity was determined as absence of growth and was correlated to CFU/ml in control experiments where activity was determined in parallel by colony counting (see Example I). Absence of growth at the 1:10^3 dilution is equivalent to a 3-log reduction in microbial viability.
(§2) The microbicidal activities of each peptide against E. coli ML35, S. aureus 502a, and C. albicans 16820 were determined with cell-suspension microbicidal assays in 96-well plates (see Example II). Briefly, log-phase cells (2×10^6 CFU/ml final) were incubated with increasing concentrations of peptides (0-8 μg/ml final) in 50 μl of 10 mM PIPES, 5 mM glucose, pH 7.4, for 2 h at 37° C. Incubation mixtures were diluted 1:10 to 1:10^6 with trypticase-soy broth (bacteria) or Sabaraud dextrose broth (fungi) and incubated at 37° C. for 24-48 h until cell pellets were visible. Microbicidal activities (confirmed in control experiments as described in Example II) were determined as the absence of a cell pellet in the various dilutions. Peptide concentrations that caused ≧99.9% killing (absence of a cell pellet at 1:10^3 dilution) were taken as the minimum microbicidal concentrations (MMC).

S. aureus 502a = test: Cell-suspension microbicidal assay (MMC); assay type: cell-based, Staphylococcus aureus; conditions: for MMC, S. aureus: lowest concentration that reduced cell viability by 99.9%, 10 mM PIPES, 5 mM glucose, pH 7.4, 2 h 37° C.; for fold reduction of staphylocidal potency relative to the peptide acid analog: carboxamide versus C-terminal acid of the same acyclic θ-defensin
Experimental: as §1, §2

C. albicans 16820 = test: Cell-suspension microbicidal assay (MMC); assay type: cell-based, Candida albicans; conditions: for MMC, C. albicans: lowest concentration that reduced cell viability by 99.9%, 10 mM PIPES, 5 mM glucose, pH 7.4, 2 h 37° C.; for fold higher potency against C. albicans than the peptide acid analog: carboxamide versus C-terminal acid of the same acyclic θ-defensin
Experimental: as §1, §2

[2] = tested on: S. aureus 502a, E. coli ML35, and C. albicans 16820; test: Cell-suspension microbicidal assay, statements across the test organisms (lowest MMC, overall ranges); assay type: cell-based; conditions: peptide concentration that kill 99.9% of either S. aureus, E. coli, or C. albicans; lowest MMC value
Experimental: as §1, §2
(§3) A selectivity index (SI=H/M) was calculated as a ratio of a peptide concentration (μg/ml) that causes 3% hemolysis (H) obtained from a dose-dependent hemolysis plot over 0.3 to 3 μg/ml of each peptide in PBS and the lowest MMC value (M) for any of the three test microorganisms (see Example II; Table 2).

E. coli ML35 [3] = test: Membrane permeabilization assay (ONPG hydrolysis); assay type: cell-based, Escherichia coli; conditions: rates at 1 μg/ml concentration of each peptide
Experimental: For the membrane permeabilization assay, the permeabilization of bacterial cytoplasmic membranes was determined by measuring hydrolysis of o-nitrophenyl-β-D-galactcpyranoside (ONPG) in E. coli ML35 (Sitaram et al., FEBS Lett. 303:265-268 (1992); Lehrer et al.,. J. Immunol. Methods 108:153-158 (1988)). Peptides dissolved in 5 μl of 0.01% acetic acid were two-fold serially diluted with 10 mM PIPES, pH 7.4, containing 3 mM ONPG, to final peptide concentrations of 0-8.0 μg/ml. Log-phase bacteria, prepared in PIPES buffer as described for the microbicidal assay (see Example I), were added to 1×10^6 CFU/ml final density in a final volume of 90 μl. ONPG hydrolysis was measured at 405 nm for 60 min using a SpectraMAX 190 plate reader and SOFTmaxPRO 3.1 (Molecular Devices Corp., CA). […]

human erythrocytes = test: Hemolysis assay; assay type: cell-based
Experimental: For the hemolysis assay, the hemolytic activity of each peptide was determined by the method of Tam et al. (Tam et al., Eur. J. Biochem. 267:3289-3300 (2000)). Blood was obtained from a healthy donor in accordance to a protocol approved by the Institutional Review Board. Normal human serum was prepared from the same individual and stored at −20° C. Red blood cells (RBC) were prepared from blood collected in EDTA. RBC were harvested at 234×g for 10 min, 22° C., washed four times with 10 mM sodium phosphate, 150 mM NaCl, pH 7.4 (PBS), containing 4 mM EDTA and resuspended in PBS without EDTA. Peptides dissolved in 10 μl 0.01% HOAc were diluted with PBS to final concentrations of 0.3-100 μg/ml. RBC were added to a 2% final density in 100 μl. Incubation mixtures were also prepared with 10% serum. After 1 h incubation at 37° C., the cell suspensions were centrifuged at 234×g for 10 min, 22° C. Fifty-μl samples of the supernatants were removed, and the absorbance at 405 nm (A) was measured. Hemolytic activity of each peptide was calculated relative to lysis by 1% NP-40 using the following formula:
as §3

SMILES	MMC, E. coli (E. coli ML35 [1]) [µg/mL]	fold lower staphylocidal activity than 3cys 3:1 PG-1-OH (S. aureus 502a; from MMC, Table 2)	MMC, S. aureus (S. aureus 502a) [µg/mL]	fold lower candidacidal activity than 3cys 3:1 PG-1-OH (C. albicans 16820; from MMC, Table 2)	MMC, C. albicans (C. albicans 16820) [µg/mL]	M [2] [µg/mL]	ONPG hydrolysis (E. coli ML35 [3])	fold lower staphylocidal potency than native PG-1 (S. aureus 502a; from MMC, Table 2) [fold]	fold lower candidacidal potency than native PG-1 (C. albicans 16820; from MMC, Table 2) [fold]	hemolysis (human erythrocytes)	fold higher potency against E. coli than the peptide acid analog (E. coli ML35 [1])	fold reduction of staphylocidal potency relative to the peptide acid analog (S. aureus 502a)	fold higher potency against C. albicans than the peptide acid analog (C. albicans 16820)	H (human erythrocytes; peptide concentration that causes 3% hemolysis, calculated from dose-dependent hemolysis plot over 0.3-3 μg/ml in PBS) [µg/mL]
CC(C)[C@@H]1NC(=O)[C@@H]2CSSC[C@H](NC(=O)[C@H](CCCNC(=N)N)NC(=O)[C@@H](NC(=O)CNC(=O)CN)CSSC[C@@H](C(=O)N[C@@H](CCCNC(=N)N)C(=O)N[C@@H](CCCNC(=N)N)C(=O)O)NC1=O)C(=O)N[C@@H](Cc1ccc(O)cc1)C(=O)N[C@H]1CSSC[C@H](NC(=O)[C@H](Cc3ccccc3)NC(=O)[C@H](CCCNC(=N)N)NC(=O)[C@H](CCCNC(=N)N)NC(=O)[C@H](CCCNC(=N)N)NC1=O)C(=O)N[C@@H](C(C)C)C(=O)N2 [3cys 2:2 PG-1-OH] (H-GGCRCYCRRRFCVCVCRR-OH; disulfide 3-16, 5-14, 7-12; N-terminus assumed)	1.0	2-4 fold	2.0	2-4 fold	4.0	1	13.0 (A405/sec) · 10^−5							
CC(C)[C@@H]1NC(=O)[C@@H]2CSSC[C@H](NC(=O)[C@H](CCCNC(=N)N)NC(=O)[C@@H](NC(=O)CNC(=O)CNC(=O)[C@@H](N)CCCNC(=N)N)CSSC[C@@H](C(=O)N[C@@H](CCCNC(=N)N)C(N)=O)NC1=O)C(=O)N[C@@H](Cc1ccc(O)cc1)C(=O)N[C@H]1CSSC[C@H](NC(=O)[C@H](Cc3ccccc3)NC(=O)[C@H](CCCNC(=N)N)NC(=O)[C@H](CCCNC(=N)N)NC(=O)[C@H](CCCNC(=N)N)NC1=O)C(=O)N[C@@H](C(C)C)C(=O)N2 [3cys 3:1 PG-1-NH] (H-RGGCRCYCRRRFCVCVCR-NH2; disulfide 4-17, 6-15, 8-13; N-terminus assumed)	1.5		2.0		4.0	1.5	12.3 (A405/sec) · 10^−5	5	5					
CC(C)[C@@H]1NC(=O)[C@@H]2CSSC[C@H](NC(=O)[C@H](CCCNC(=N)N)NC(=O)[C@@H](NC(=O)CNC(=O)CNC(=O)[C@@H](N)CCCNC(=N)N)CSSC[C@@H](C(=O)N[C@@H](CCCNC(=N)N)C(=O)O)NC1=O)C(=O)N[C@@H](Cc1ccc(O)cc1)C(=O)N[C@H]1CSSC[C@H](NC(=O)[C@H](Cc3ccccc3)NC(=O)[C@H](CCCNC(=N)N)NC(=O)[C@H](CCCNC(=N)N)NC(=O)[C@H](CCCNC(=N)N)NC1=O)C(=O)N[C@@H](C(C)C)C(=O)N2 [3cys 3:1 PG-1-OH] (H-RGGCRCYCRRRFCVCVCR-OH; disulfide 4-17, 6-15, 8-13; N-terminus assumed)	1.5		0.5		1.5	0.5	11.0 (A405/sec) · 10^−5							
CC(C)[C@@H]1NC(=O)[C@@H]2CSSC[C@H](NC(=O)[C@H](CCCNC(=N)N)NC(=O)[C@@H]3CSSC[C@H](NC1=O)C(=O)N[C@@H](CCCNC(=N)N)C(=O)N[C@@H](CCCNC(=N)N)C(=O)NCC(=O)NCC(=O)N3)C(=O)N[C@@H](Cc1ccc(O)cc1)C(=O)N[C@H]1CSSC[C@H](NC(=O)[C@H](Cc3ccccc3)NC(=O)[C@H](CCCNC(=N)N)NC(=O)[C@H](CCCNC(=N)N)NC(=O)[C@H](CCCNC(=N)N)NC1=O)C(=O)N[C@@H](C(C)C)C(=O)N2 [3cys cPG-1] (cyclo(GGCRCYCRRRFCVCVCRR); disulfide 3-16, 5-14, 7-12)	1.3		0.5		2.5	0.5	10.7 (A405/sec) · 10^−5		3	5-6%				
CC(C)C[C@H](NC(=O)[C@H](CCCNC(=N)N)NC(=O)CNC(=O)CN)C(=O)N[C@H]1CSSC[C@@H](C(=O)N[C@H](C(=O)NCC(=O)N[C@@H](CCCNC(=N)N)C(=O)N[C@@H](CCCNC(=N)N)C(=O)O)C(C)C)NC(=O)[C@H](C(C)C)NC(=O)[C@@H]2CSSC[C@H](NC(=O)[C@H](Cc3ccc(O)cc3)NC1=O)C(=O)N[C@@H](CCCNC(=N)N)C(=O)N[C@@H](CCCNC(=N)N)C(=O)N[C@@H](CCCNC(=N)N)C(=O)N[C@@H](Cc1ccccc1)C(=O)N2 [4:4 PG-1-OH] (H-GGRLCYCRRRFCVCVGRR-OH; disulfide 5-14, 7-12; N-terminus assumed)	1.0		1.0		2.5	1	12.1 (A405/sec) · 10^−5							
CC[C@H](C)[C@@H]1NC(=O)[C@@H]2CSSC[C@H](NC(=O)[C@H](CCCNC(=N)N)NC(=O)[C@@H](NC(=O)[C@H](Cc3ccccc3)NC(=O)CN)CSSC[C@@H](C(=O)N[C@H](C(=O)N[C@@H](CCCNC(=N)N)C(N)=O)[C@@H](C)O)NC1=O)C(=O)N[C@@H](CC(C)C)C(=O)N[C@H]1CSSC[C@H](NC(=O)[C@H](C(C)C)NC(=O)CNC(=O)[C@H](CCCNC(=N)N)NC(=O)[C@H](CCCNC(=N)N)NC1=O)C(=O)N[C@@H](CCCNC(=N)N)C(=O)N2 [aRTD-1-NH] (H-GFCRCLCRRGVCRCICTR-NH2; disulfide 3-16, 5-14, 7-12; N-terminus assumed)	2.0		5.0		1.0	1	8.8 (A405/sec) · 10^−5				4 fold	no effect	4 fold	8.8
CC(C)C[C@@H]1NC(=O)[C@@H]2CSSC[C@H](NC(=O)[C@H](CCCNC(=N)N)NC(=O)[C@@H](NC(=O)[C@@H](NC(=O)CN)C(C)C)CSSC[C@@H](C(=O)N[C@@H](CCCNC(=N)N)C(=O)N[C@@H](CCCNC(=N)N)C(N)=O)NC1=O)C(=O)N[C@@H](CC(C)C)C(=O)N[C@H]1CSSC[C@H](NC(=O)[C@H](C(C)C)NC(=O)CNC(=O)[C@H](CCCNC(=N)N)NC(=O)[C@H](CCCNC(=N)N)NC1=O)C(=O)N[C@@H](CCCNC(=N)N)C(=O)N2 [aRTD-3-NH] (H-GVCRCLCRRGVCRCLCRR-NH2; disulfide 3-16, 5-14, 7-12; N-terminus assumed)	1.0		4.5		0.8	0.75	9.7 (A405/sec) · 10^−5				2- to 4 fold	3 fold	2- to 4 fold	
